Experimental data taken from patent publication US20240115629A1, “ORAL COMPOSITION” (BLIS TECHNOLOGIES LIMITED, priority 2021, published 2024).

Tested on: BLIS M18 and K12
Assay: Comparison of foaming agents: inhibition on agar plates
Type: cell-based, Streptococcus salivarius
Details: 10 μL spotted on CABK12 and BaCa agar plates, 37° C. 5% CO2, 24 hrs
Experimental: Samples were prepared by • 1. mixing 1.1 g of BLIS M18 with 9.9 g of phosphate buffered saline (PBS) for 5 min and diluting by 1 in 10 with PBS • 2. adding to CABK12 and BaCa agar plates • 3. spotting 10 μL of foaming agent to plates and incubating at 37° C. 5% CO2 for 24 hrs, • 4. determining inhibition

Compound | Inhibitory to BLIS M18 and K12
CCCCCCCC/C=C\CCCCCCCC(=O)OCCOCC(OCCO)C1OCC(OCCO)C1OCCO (stereo not shown) [Polysorbate 80] | No
CCCCCCCCCCCCOS(=O)(=O)[O-].[Na+] [Sodium Lauryl Sulphate] | Yes
Sodium Cocyl Isethionate | Yes
Lauryl glucoside | Yes
Coco Glucoside | Yes
CCCCCCCCCCO[C@@H]1O[C@H](CO)[C@@H](O)[C@H](O)[C@H]1O [Decyl Glucoside] | Yes
CCCCCCCCO[C@@H]1O[C@H](CO)[C@@H](O)[C@H](O)[C@H]1O [Caprylyl glucoside] | Yes
